Reference: article PMC4171606, “A novel copper(I) complex induces ER-stress-mediated apoptosis and sensitizes B-acute lymphoblastic leukemia cells to chemotherapeutic agents” (Oncotarget, 2014)

How the values were obtained:
Type in all cases: cell-based, human
[1] = tested on: Bcl-2; assay: Western blot, Bcl-2; settings: SEM and RS4;11, CP 2.5 μM
Experimental: (§1) FIGURE 2 CP induces caspase-dependent apoptosis without mitochondria involvement (A) Assessment of mitochondrial membrane potential (ΔΨmt) after treatment of RS4;11 and SEM cells with CP (2.5 μM) for the indicated times. Cells were stained with the fluorescent probe JC-1. Data are represented as mean ± S.E.M. of three independent experiments. (B) Flow cytometric analysis of RS4;11 and SEM cells treated with CP (2.5 μM) for 24 h showing cytochrome c labeled with a monoclonal antibody conjugated to FITC. Representative image of three experiments with similar results. (C) Cells were incubated with CP 2.5 μM and 5 μM in the presence or absence of the pan-caspase inhibitor z-VAD.fmk (100 μM). Cell viability was determined after 48 h by MTT assay. Data are represented as mean ± S.E.M. of three independent experiments performed in triplicate. *p<0.01 vs CP alone. (D) Western blot analysis of Bcl-2, cleaved caspase-12, caspase-9, cleaved caspase-7, caspase-3 and PARP after treatment of SEM and RS4;11 cells with CP (2.5 μM) for the indicated times. To confirm equal protein loading, each membrane was stripped and reprobed with anti-β-actin antibody. […]
(§2) Cells were treated with CP and, after different times, were collected, centrifuged and washed with ice cold phosphate-buffered saline (PBS). […] The protein concentration in the supernatant was determined using the BCA protein assay (Pierce, Italy). […]

[2] = tested on: GRP78; assay: Western blot, ER stress marker GRP78
Experimental: Moreover we found an increase in CHOP expression starting from 3 h of CP treatment. […] Whilst GRP78, due to its chaperon activity, exerts a protective function, CHOP promotes ER-stress cell death, thus the rapid activation of pro-death signals and the late activation of pro-survival chaperone GRP78 could explain the commitment toward apoptosis induced by CP. Moreover, in unresolvable stress conditions, an increased CHOP expression has been correlated to the induction of the expression of many apoptotic genes and to the down-regulation prosurvival genes, such as Bcl-2 [30].
FIGURE 4 CP induces ER stress Western Blot analysis showing expression of GRP78 and CHOP in SEM (A) and in RS4;11 (B) cells. Cells were treated with CP 2.5 μM for the indicated times. (C) PCR analysis showing the induction of XBP1 splicing in SEM and RS4;11 cells. Cells were treated with CP (2.5 μM) or Tunicamycin (2 μg/ml) as positive control for 12 h.
Cells were treated with CP and, after different times, were collected, centrifuged and washed with ice cold phosphate-buffered saline (PBS). The pellet was then resuspended in lysis buffer as described. The protein concentration in the supernatant was determined using the BCA protein assay (Pierce, Italy). […]

[3] = tested on: PHA stimulated healthy PBMC; assay: MTT growth inhibition, 72 h; settings: mean ± SE
[4] = tested on: CD19+ cells from peripheral blood of healthy donors; assay: MTT viability of healthy cells, 24 h
Experimental: (§3) CP growth inhibitory activity was measured on primary cultures derived from pediatric patients affected by B-acute lymphoblastic leukemia. […] In particular, in resting and in PHA-stimulated PBMC, and in CD19^+ cells GI50 was higher than 10 μM confirming that CP preferentially affects leukemia cells.
(§4) FIGURE 6 CP effects on B-ALL primary cultures (A) Blast cells from six B-ALL patients were incubated for 24 h with different concentrations of CP. For the sake of comparison CD19^+ cells from peripheral blood of healthy donors, and PBMC were also incubated with CP in the presence or absence of PHA. Cell viability were assayed by MTT analysis. Data are represented as mean ± S.E.M of four independent experiments. (B) Bone marrow cells from healthy donors were treated for 24 h with CP (2.5 μM and 5 μM). Cell viability was evaluated on the whole population by flow cytometry after staining the cells with Annexin-V-FITC and PI. are represented as mean ± S.E.M of 3 independent experiments. (C) Western Blot analysis of GRP78 and CHOP expression, PARP cleavage and caspase-3 activation, on protein extracts of blast cells from B-ALL patients treated with CP (2.5 μM) for 12 h.
(§5) Peripheral blood mononuclear cells (PBMC) and bone marrow cells from healthy donors were obtained by separation on Lymphoprep (Fresenius KABI, Norge AS) gradient. After extensive washing, cells were resuspended (1.0 × 10^6 cells/ml) in RPMI1640 with 10% fetal bovine serum and incubated overnight in 96-well tissue culture microtiter plate. For cytotoxicity evaluations in proliferating PBMC cultures, non-adherent cells were resuspended in growth medium, containing 2.5 μg/ml phytohematoglutinin (PHA) (Irvine Scientific). To isolate B-lymphocyte, PBMC obtained by Lymphoprep (Fresenius KABI, Norge AS) separation were labeled with anti-CD19-APC (BD Biosciences, Italy) and collected by cell sorting.

[5] = tested on: PHA-stimulated PBMC; assay: MTT viability of healthy cells, 24 h
Experimental: as §3, §4, §5

[6] = tested on: resting PBMC; assay: MTT viability of healthy cells, 24 h
Experimental: as §3, §4, §5

[7] = tested on: caspase-12; assay: Western blot, cleaved caspase-12
Experimental: as §1, §2

## F[P-](F)(F)(F)(F)F.OCP(CO)CO.OCP(CO)CO.OCP(CO)CO.OCP(CO)CO.[Cu+] [CP, [Cu(thp)4][PF6]]
[1]
  time at which decrease of Bcl-2 expression is detectable: ≥ 3 h
[2]; RS4;11, CP 2.5 μM
  time of remarkable increase of GRP78 expression: 12 h
[2]; SEM, CP 2.5 μM
  time of remarkable increase of GRP78 expression: 6 h
[3]
  GI50: 16.9 ± 1.6 µM
[4]
  GI50: > 10 µM
[5]
  GI50: > 10 µM
[6]
  GI50: > 10 µM
[7]; RS4;11, CP 2.5 μM
  onset of caspase-12 activation: ≥ 1.5 h
[7]; SEM, CP 2.5 μM
  onset of caspase-12 activation: ≥ 3 h
